US9499496B2, “Inhibitors of respiratory syncytial virus” (University of Kansas, priority 2012, dated 2016)
Several values for one entry are separate records, joined by “and”; a condition that tells them apart may be missing. Equal entries are not always repeated. Where two headings read alike, the source gives them in different places. Marks after values point to notes of the source that are not given here.

Legend:
RSV [1] = experiment: Time of addition CPE assay; assay type: cell-based, RSV Long strain; settings: for Change in cell viability with time of addition: addition at time points between 7-24 hours post-infection
Procedure: Assay Description: HEp-2 cells were plated in 96 well black tissue culture plates at 10,000 cells per well in 80 μl and incubated 24 hours at 37° C., 5% CO2. All cell plating was conducted using a Matrix WellMate™ and cells were maintained at room temperature with stirring during the plating process. Compounds were diluted in media to give a final concentration of 25 μM and added to plates at −1, 0, 1, 4, 6, 20 and 24 hours post-infection (p.i.). The cells were infected with RSV Long strain at an MOI of 3 and the assay plates were incubated for six days at 37° C., 5% CO2 and 90% relative humidity.
The Cell Titer Glo® assay was used to determine viability of the cells. The assay plates were equilibrated to room temperature for 10 minutes and then an equal volume of Cell Titer-Glo reagent (Promega Inc.) was added to each well. Plates were incubated for 10 min at room temperature and luminescence was measured using a multi-label plate reader with an integration time of 0.1 s.
A cell-based assay was used to determine the ability of the probe to inhibit different stages of a single round of viral replication. […] Compounds B and F (diamonds and squares, respectively) are of similar chemical structure. The percent cell viability values at each time point for the respective molecules are compared with that of ribavirin (RBV). […] This sustained efficacy may be due to the inhibition of one or more late virus life cycle steps (post-entry or late-stage infection processes), and this hypothesis is supported by an ability to affect processes later in the viral replication cycle.

RSV [2] = experiment: RSV CPE assay (inhibition of RSV-induced cytopathic effect, luminescent cell viability readout); assay type: cell-based, RSV (strain Long); settings: for Selectivity Index (CC50/EC50): antiviral activity over HEp-2 cell cytotoxicity
physchem [3] = settings: plasma or biological fluid
RSV [4] = experiment: RSV plaque reduction assay (titer reduction); assay type: cell-based, RSV Long strain; settings: HEp-2 cells; for Plaque Reduction Assay (log reduction) at 10 μM: 10 μM test compound; for Plaque Reduction Assay (log reduction): concentration not given
physchem [5] = settings: 23 °C, pH 7.4, aqueous buffer
in vitro [6] = settings: human
HEp-2 cells = settings: HEp-2 cell cytotoxicity
[7] = Stability in PBS over 48 h; settings: for Stability in PBS (% parent remaining after 48 h), with acetonitrile: PBS with 50% acetonitrile; for Stability in PBS (% parent remaining after 48 h): no additives, 23° C.
in vitro [8] = settings: PAMPA
[9] = test system: Calcium Channel L-Type, Dihydropyridine; experiment: Ricerca LeadProfiling screen; assay type: binding; settings: 10 μM, duplicate, rat
dengue viruses = assay type: cell-based
[10] = test system: Ricerca LeadProfiling screen made up of 67 assays; experiment: Ricerca LeadProfiling screen, all other targets of the 67 assays; assay type: binding; settings: 10 μM, duplicate
influenza A = assay type: cell-based
[11] = test system: Venezuelan equine encephalitis; assay type: cell-based
vaccinia = assay type: cell-based
[12] = test system: Calcium Channel L-Type, Benzothiazepine; experiment: Ricerca LeadProfiling screen; assay type: binding; settings: 10 μM, duplicate, rat
[13] = human respiratory syncytial virus, HEp-2 cells, RSV-induced CPE, read-out: CPE Assay EC50

SMILES	Change in cell viability with time of addition (RSV [1])	EC50 (RSV [2]; [13]) [nM]	solubility (physchem [3])	Plaque Reduction Assay (log reduction) at 10 μM (RSV [4])	Plaque Reduction Assay (log reduction) (RSV [4])	solubility (physchem [5])	Selectivity Index (CC50/EC50) (RSV [2])	CC50 at 6 days (in vitro [6]; CC50, HEp-2 cell cytotoxicity) [nM]	other results
Cc1ccc(Cn2c(=O)n(Cc3ccc(C(=O)NCC4COC4)cc3)c(=O)c3ccccc32)cc1 [Compound F, 4-((1-(4-methylbenzyl)-2,4-dioxo-1,2-dihydroquinazolin-3(4H)-yl)methyl)-N-(oxetan-3-ylmethyl)benzamide]	does not result in a dramatic change in cell viability	710 ± 130	4.5 µg/mL and 9.58 µM	5.10 log reduction	5.1 log reduction	4.5 µg/mL and 0.75 µM	–	–	EC50 (RSV [2]; human respiratory syncytial virus, HEp-2 cells, read-out: CPE EC50 (potency) as given): ~700 nM
CN(C)c1ccc(Cn2c(=O)n(Cc3ccc(C(=O)NCC4COC4)cc3)c(=O)c3ccccc32)cc1 [Compound E, 4-((1-(4-(dimethylamino)benzyl)-2,4-dioxo-1,2-dihydroquinazolin-3(4H)-yl)methyl)-N-(oxetan-3-ylmethyl)benzamide]	–	1070 ± 220	9.2 µg/mL and 18.4 µM	>6.18 log reduction	>6.18 log reduction	5.6 µg/mL and 11.2 µM	41.8	~50000	Plaque Reduction Assay (log reduction) (RSV [4]; listed as FIG. 5, entry 7): > 6 log reduction; CC50 (HEp-2 cells): 44700 ± 7220 nM
COCCCNC(=O)c1ccc(Cn2c(=O)c3ccccc3n(Cc3ccc(Br)cc3)c2=O)cc1 [Compound C, 4-((1-(4-bromobenzyl)-2,4-dioxo-1,2-dihydroquinazolin-3(4H)-yl)methyl)-N-(3-methoxypropyl)benzamide]	–	850 ± 150	2.7 µg/mL and 5.03 µM	4.07 log reduction	4.07 log reduction	0.31 µg/mL and 0.58 µM	118.9	98800 ± 8700	Stability in PBS (% parent remaining after 48 h), with acetonitrile [7]: 100% (with; Stability in PBS (% parent remaining after 48 h) [7]: 57.5% (PBS);
NC(=O)c1ncn([C@@H]2O[C@H](CO)[C@@H](O)[C@H]2O)n1 [ribavirin, reference compound]	–	28400	–	2.47 log reduction	–	–	–	–	Protection of cells from RSV-induced CPE (RSV [1]; added up to 7 hours post-infection): approximately 100%; CC50 at 6 days (in vitro [6]): 114000 ± 38500 nM
CNC(=C[N+](=O)[O-])NCCSCc1ccc(CN(C)C)o1 [Ranitidine]	–	–	–	–	–	–	–	–	Papp (in vitro [8]): < 10 ×10⁻⁶ cm/s; Papp (in vitro [8]; pH 7.4): < 10 ×10⁻⁶ cm/s
COCCCNC(=O)c1ccc(Cn2c(=O)c3ccccc3n(Cc3ccc(C(C)C)cc3)c2=O)cc1 [Compound A, 4-((1-(4-isopropylbenzyl)-2,4-dioxo-1,2-dihydroquinazolin-3(4H)-yl)methyl)-N-(3-methoxypropyl)benzamide]	does not result in a dramatic change in cell viability	–	–	6.7 log reduction and 6.70 log reduction	6.70 log reduction	–	–	> 200000	Latest effective time of addition (RSV [1]; single round of viral replication, compound added −1 to 24 h post-infection): > 24 hours post-infection; Percent Inhibition [9]: 70%; Efficacy in inhibiting dengue viruses (dengue viruses): no efficacy; EC50 (RSV [2]; human respiratory syncytial virus, read-out: RSV CPE assay, repeated, repeat of the RSV CPE assay): 340 nM; EC50 (RSV [2]; read-out: CPE Assay EC50, HEp-2 cells, RSV-induced CPE): 810 nM; Inhibition, all other targets [10]: below 34%; Efficacy in inhibiting influenza A (influenza A): no efficacy; Efficacy in inhibiting Venezuelan equine encephalitis virus [11]: no efficacy; Efficacy in inhibiting vaccinia (vaccinia): no efficacy; Percent Inhibition [12]: 52%
COCCCNC(=O)c1ccc(Cn2c(=O)c3ccccc3n(Cc3ccc(C)cc3)c2=O)cc1 [hit compound, 4-((1-(4-methylbenzyl)-2,4-dioxo-1,2-dihydroquinazolin-3(4H)-yl)methyl)-N-(3-methoxypropyl)benzamide]	–	2140	–	–	4.15 log reduction	–	–	59500	–
CCc1ccc(Cn2c(=O)n(Cc3ccc(C(=O)NCCCOC)cc3)c(=O)c3ccccc32)cc1 [Compound D, 4-((1-(4-ethylbenzyl)-2,4-dioxo-1,2-dihydroquinazolin-3(4H)-yl)methyl)-N-(3-methoxypropyl)benzamide]	–	1000 ± 50	1.5 µg/mL and 3.09 µM	5.90 log reduction	5.90 log reduction	–	94.9 and 94.5	94800 ± 3750	–
COCCCNC(=O)c1ccc(Cn2c(=O)c3ccccc3n(Cc3ccc([N+](=O)[O-])cc3)c2=O)cc1 [Compound B, N-(3-methoxypropyl)-4-((1-(4-nitrobenzyl)-2,4-dioxo-1,2-dihydroquinazolin-3(4H)-yl)methyl)benzamide]	does not result in a dramatic change in cell viability	570 ± 14	–	>5.56 log reduction	>5.56^a log reduction	–	–	128000 ± 4240	Stability in PBS (% parent remaining after 48 h), with acetonitrile [7]: 94.9% (with; Stability in PBS (% parent remaining after 48 h) [7]: 83.4% (PBS);; EC50 (RSV [2]; human respiratory syncytial virus, repeat of the RSV CPE assay, read-out: RSV CPE assay, repeated): 200 nM; CC50 (HEp-2 cells): > 128000 nM
